Data on four compounds can be found in patent US20150218514A1, “PROMOTER OF DIFFERENTIATION FROM HEPATIC PROGENITOR CELL INTO HEPATIC CELL, AND USE THEREOF” (NATIONAL CANCER CENTER, priority 2012, published 2015).

In series [1] the test system is Hepatoblastoma HepG2 cells. Kind of series: Morphology of HepG2 cells cultured with substance that inhibits DNA methylation caused by Dnmt-1. The following applies: 2.5 μM; day 14 of culture. The format is cell-based, human. As to the method: Hepatoblastoma HepG2 cells (American Type Culture Collection: ATCC) were plated on a 35 mm cell culture dish at 7×10^5 cells, and cultured in DMEM (Invitrogen Corporation) added with 100 IU/mL penicillin-100 μg/mL streptomycin solution (Invitrogen Corporation), 10% fetal bovine serum (Thermo Fisher Scientific K.K.), and a substance that inhibits DNA methylation (5-aza-2′-deoxycytidine: 5-aza (decitabine): 2.5 μM). The medium was exchanged every day.

Series [2] has as its system HepG2 cells. Put plainly: PAS staining of HepG2 cells (glycogen storage capacity). The series is classed as cell-based, human. The following applies: 2.5 μM; culture for 14 days; compared to control without inhibitor. How it is done:
HepG2 cells (ATCC) were plated on a 35 mm cell culture dish at 7×10^5 cells, and cultured in DMEM (Invitrogen Corporation) added with 100 IU/mL penicillin-100 μg/mL streptomycin solution (Invitrogen Corporation), 10% fetal bovine serum (Thermo Fisher Scientific K.K.), and a substance that inhibits DNA methylation (5-aza-2′-deoxycytidine: 5-aza (decitabine): 2.5 μM). The medium was exchanged every day.

For series [3], the system named is HepG2 cells. The following applies: HepG2 cells treated for 2 days; non-patent document 8; cited from earlier work.
For series [4] the following is noted: non-patent document 12; cited from earlier work.
The test system of series [5] is Mouse hepatic progenitor cells. Put plainly: Expression level of hepatocyte markers after differentiation induction of mouse hepatic progenitor cells (real-time PCR). The series is classed as cell-based. The following applies: for expression level of Cyp17a1 / expression level of G6pc / expression level of Tat / expression level of albumin: 100 nM siRNA introduced on day 2, day 6 of culture, compared to control siRNA (siCtrl). As to the method: To a basal medium for hepatocyte were added 5 μg/mL of insulin (Sigma-Aldrich Corporation), 25 ng/mL of epidermal growth factor (EGF) (Sigma-Aldrich Corporation), 25 ng/mL of hepatocyte growth factor (HGF) (Peprotech), 12.5 ng/mL of oncostatin M (Sigma-Aldrich Corporation), 5×10^−7M hydrocortisone 21-hemisuccinate sodium salt (Sigma-Aldrich Corporation) and 10^−7 M dexamethasone (Sigma-Aldrich Corporation) to prepare the medium.
The hepatic parenchymal cells were diluted with HEPES buffer added with 2% fetal bovine serum to prepare a 10^7 cells/100 μL cell suspension, which was transferred into a 5 mL round-bottom tube. A mouse FcR blocking antibody in EasySep Mouse Biotin Positive Selection Kit ([…] Technologies Inc) was added at 1 μL per 10^7 cells, and the mixture was admixed by tapping the tube. Biotin-labeled anti-E-cadherin antibody (eBioscience) was added at 2-4 μL per 10^7 cells, and the mixture was left standing at room temperature for 15 min while stirring the tube every 2-3 minutes. Biotin Selection Cocktail in EasySep Mouse Biotin Positive Selection Kit was added at 10 μL per 10^7 cells, and the mixture was left standing at room temperature for 15 min with occasional stirring. Magnetic particles in EasySep Mouse Biotin Positive Selection Kit were added at 5 μL per 10^7 cells, and the mixture was stirred and left standing at room temperature for 10 min. To the cell suspension was added a medium for cell isolation, and the volume was adjusted to 2.5 mL. The mixture was suspended with a 2 mL plastic pipette, and the tube was placed in an exclusive magnet ([…] Technologies Inc.) and left standing at room temperature for 10 min. The exclusive magnet containing the tube was reversed for 3 sec, and a non-hepatic progenitor cell fraction was removed (purification operation: first time). The tube was taken out from the exclusive magnet, 2.5 mL of the medium for cell isolation was added, and a purification operation was performed again (purification operation: second time). Furthermore, 2.5 mL of the medium for cell isolation was added, and a purification operation was performed for the third time (purification operation: third time). The cells remaining in the tube are the hepatic progenitor cells.
Total RNA was extracted from cultured cells, liver cancer cell lines, and mouse and human normal hepatic tissues by using miRNeasy Mini Kit (QUIAGEN). The total RNA was quantified by NanoDrop 1000 spectrophotometer (Thermo Fisher Scientific K.K.). The hepatic tissues recovered from mouse were placed in ice-cooled phosphate buffer and disrupted before extraction of RNA. Red blood cells were lysed in Red Blood Cell Lysis Buffer (Sigma-Aldrich Corporation).
(§1) RNA was quantified by the real-time PCR method using 7300 real-time PCR system (Applied Biosystems) and TaqMan MicroRNA Assays (Applied Biosystems). The miRNA expression was standardized at 6NU6B level. For quantification of messenger RNA, total RNA sample was treated with DNase (TURBO DNA-free kit: Ambion Inc.), and cDNA was synthesized from 1 μg of total RNA by using reverse transcriptase (SuperScript III Reverse Transcriptase: Ambion Inc.). For quantification, SYBR Green (PlatinumSYBR Green quantitative PCR SuperMix UDG: Invitrogen Corporation) was used. The reaction for real-time PCR was performed at 95° C., 2 min, 40 cycles (95° C. for 15 sec, 60° C. for 30 sec). The cDNA expression level was standardized by GAPDH.
In general terms: Real-time PCR tracks product formation cycle by cycle.

For a further series, the system named is Dnmt-1. Kind of series: Dnmt-1 expression level after differentiation induction of mouse hepatic progenitor cells (real-time PCR). The format is cell-based. The following applies: 100 nM siRNA; day 6 of culture; compared to control siRNA (siCtrl). As to the method: as §1, with “GAPDH. […]” for “GAPDH.”
Mouse hepatic progenitor cells were plated at 4×10^4 cells/cm^2 in a 35 mm cell culture dish coated with type I collagen, […], after confluence (after day 4 of culture), the cells were cultured in the medium for hepatic progenitor cells free of epidermal growth factor (EGF) and fetal bovine serum. […] Total RNA was extracted, and Dnmt-1 was quantified by the real-time PCR method. […]

Consider `Nc1ncn([C@H]2C[C@H](O)[C@@H](CO)O2)c(=O)n1` [5-aza-2′-deoxycytidine], for which the cell morphology result in series [1] is “morphology specific to mature hepatocyte (multiple nuclei, clear cell boundary)”. In addition, the “glycogen storage capacity (PAS staining)” value in the series on HepG2 cells [2] is “high glycogen storage capacity”. For the same compound, the “mRNA level of CYP gene” value with HepG2 cells [3] is reported as “increases”. In series [4], the apoptosis result is reported as “induce apoptosis” and the cytotoxicity entry was “high cytotoxicity”.
Turning to `O=C(O)C(Cc1c[nH]c2ccccc12)N1C(=O)c2ccccc2C1=O` (centres unmarked) [RG108], the expression of albumin result in series [5] (RG108 20 or 100 μM in medium from day 2, day 7 of culture, compared to control) is “high level”. For the same compound, the “effect of promoting differentiation into a hepatocyte” value in series [5] (among the substances that inhibit DNA methylation) is on record as “high effect”.
For “siDnmt-1a: double stranded RNA, sense strand SEQ ID NO: 9 and antisense strand SEQ ID NO: 10; siRNA that suppresses expression of Dnmt-1 (sense GGUAGAGAGUUACGACGAATT; antisense UUCGUCGUAACUCUCUACCTG; chemistry not given here)”, in series [5], the “expression level of Cyp17a1” value is “high expression levels”, the “expression level of G6pc” value was “high expression levels”, the “expression level of Tat” value is reported as “high expression levels” and the “expression level of albumin” value is recorded as “high expression levels”. In addition, the “expression of Dnmt-1” value in the series on Dnmt-1 is reported as “suppressed”.
As for “siDnmt-1b: double stranded RNA, sense strand SEQ ID NO: 11 and antisense strand SEQ ID NO: 12; siRNA that suppresses expression of Dnmt-1 (sense CAACGGAUCCUAUCACACUTT; antisense AGUGUGAUAGGAUCCGUUGTA; chemistry not given here)”, in series [5], the “expression level of Cyp17a1” value is “high expression levels”, the “expression level of G6pc” value is “high expression levels”, the “expression level of Tat” value is on record as “high expression levels” and the “expression level of albumin” value is “high expression levels”. Besides, the “expression of Dnmt-1” value with Dnmt-1 is on record as “suppressed”.
